The test system of assay [1] is CCL17 secretion in peripheral human whole blood. As to the kind of experiment: Human Whole Blood (HWB) CCL17 TR-FRET Assay (IL-13 stimulated CCL17 secretion). It is filed as cell-based. Particulars: human whole blood. The procedure, abridged:
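Compounds are titrated (11 points, 3-fold, duplicate) into fresh heparinized human whole blood and held 2 h at 37 °C before IL-13 challenge (10 ng/mL final). After 48 h at 37 °C, serum CCL17 is measured by TR-FRET sandwich assay and IC50 values are calculated.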
(TR-FRET usually uses a lanthanide donor and a delayed reading to cut background.)

Assay [2] concerns the target T1, STAT6 (Homo sapiens, UniProt P42226).
T1 construct: stably transfected HaCaT keratinocyte cell line, which expresses NanoLuc luciferase reporter gene under the transcriptional control of the STAT6 responsive promoter; endogenous in cells; host or cells: HaCaT keratinocyte reporter cell line (stably transfected with a NanoLuc reporter)
T1 sequence (P42226 1-847): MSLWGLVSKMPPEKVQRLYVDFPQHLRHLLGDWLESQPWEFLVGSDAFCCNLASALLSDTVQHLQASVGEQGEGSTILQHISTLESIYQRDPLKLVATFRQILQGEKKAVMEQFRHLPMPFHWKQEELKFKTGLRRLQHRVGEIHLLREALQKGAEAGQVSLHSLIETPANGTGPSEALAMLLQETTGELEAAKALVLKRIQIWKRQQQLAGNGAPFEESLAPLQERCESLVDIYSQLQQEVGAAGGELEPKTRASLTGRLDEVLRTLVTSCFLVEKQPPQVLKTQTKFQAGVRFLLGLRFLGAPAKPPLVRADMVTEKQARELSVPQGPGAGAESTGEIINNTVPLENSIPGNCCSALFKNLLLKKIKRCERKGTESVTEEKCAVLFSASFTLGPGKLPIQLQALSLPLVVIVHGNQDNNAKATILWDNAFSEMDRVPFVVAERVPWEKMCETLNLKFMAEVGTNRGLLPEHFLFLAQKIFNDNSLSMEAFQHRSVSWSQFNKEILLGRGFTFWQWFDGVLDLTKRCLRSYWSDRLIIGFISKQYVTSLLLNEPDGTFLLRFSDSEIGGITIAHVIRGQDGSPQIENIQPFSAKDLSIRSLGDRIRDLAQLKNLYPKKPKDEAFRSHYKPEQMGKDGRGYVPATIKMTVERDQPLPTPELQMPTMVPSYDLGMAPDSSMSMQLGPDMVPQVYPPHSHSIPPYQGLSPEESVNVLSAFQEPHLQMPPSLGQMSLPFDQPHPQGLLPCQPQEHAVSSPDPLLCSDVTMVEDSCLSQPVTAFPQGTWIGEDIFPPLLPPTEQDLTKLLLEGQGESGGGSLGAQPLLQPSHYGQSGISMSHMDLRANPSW
Kind of assay: STAT6 Reporter Luciferase Assay (IL-13 stimulated HaCaT keratinocyte NanoLuc reporter cells). It is filed as cell-based. Particulars: IL-13 stimulated HaCaT STAT6 NanoLuc reporter cells; read-out: Reporter EC50. The procedure, abridged:
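Luminescence from a NanoLuc reporter driven by the STAT6-responsive IL-13Ra2 promoter in HaCaT keratinocytes serves as the read-out. Compounds are given 2 h before a 4 h stimulation with 0.12 nM IL-13.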

The mark [3] stands for this setting: Homo sapiens, 48 h, IL-13 stimulated.
Setting [4] is: Homo sapiens, 48 h, 10 ng/mL IL13, 48 hours.

Each structure is given as a SMILES string. Some results are limits rather than exact numbers.

For orientation: IC50 means the concentration that inhibits the measured activity by half. A low value points to greater potency. In general, EC50 refers to the concentration at which the effect is half-maximal.

As for `CCn1nc(C(=O)NCc2ccc(C(=O)NC)cc2)c2c1C(C(F)(F)F)CN(c1ccc(C(=O)N(C)C)cn1)C2` (single isomer, unassigned) [Example 467, rel-(R or S)-5-(5-(dimethylcarbamoyl)pyridin-2-yl)-1-ethyl-N-(4-(methylcarbamoyl)benzyl)-7-(trifluoromethyl)-4,5,6,7-tetrahydro-1H-pyrazolo[4,3-c]pyridine-3-carboxamide], the IC50 in assay [1] (IL-13 stimulated, 48 hours) turned out to be 2500 nM. Besides, the EC50 in assay [2] was 315 nM.

In assay [1] (IL-13 stimulated, 48 hours), `CCn1nc(C(=O)NCc2ccc(C(=O)NC)cc2)c2c1C(C(F)(F)F)CN(c1ccc(C(=O)N(C)C)cn1)C2` (single isomer, unassigned) [Example 468, rel-(R or S)-5-(5-(dimethylcarbamoyl)pyridin-2-yl)-1-ethyl-N-(4-(methylcarbamoyl)benzyl)-7-(trifluoromethyl)-4,5,6,7-tetrahydro-1H-pyrazolo[4,3-c]pyridine-3-carboxamide] registered an IC50 of 12 nM. For the same compound, in assay [2], the EC50 came to 2.2 nM.

Compound `CC(C)n1nc(C(=O)NCc2ccc(NC(=O)N(C)C)cc2)c2c1C(O)CN(c1ccc(C(=O)N(C)C)cn1)C2` (single isomer, unassigned) [Example 474, rel-(R or S)-5-(5-(dimethylcarbamoyl)pyridin-2-yl)-N-(4-(3,3-dimethylureido)benzyl)-7-hydroxy-1-isopropyl-4,5,6,7-tetrahydro-1H-pyrazolo[4,3-c]pyridine-3-carboxamide] yielded an IC50 in assay [1] (IL-13 stimulated, 48 hours) of 85 nM. The EC50 in assay [2] came to 40 nM.

As for `CC(C)n1nc(C(=O)NCc2ccc(NC(=O)N(C)C)cc2)c2c1C(O)CN(c1ccc(C(=O)N(C)C)cn1)C2` (single isomer, unassigned) [Example 475, rel-(R or S)-5-(5-(dimethylcarbamoyl)pyridin-2-yl)-N-(4-(3,3-dimethylureido)benzyl)-7-hydroxy-1-isopropyl-4,5,6,7-tetrahydro-1H-pyrazolo[4,3-c]pyridine-3-carboxamide], the IC50 in assay [1] (IL-13 stimulated, 48 hours) stood at 215 nM. In assay [2], the EC50 was determined as 72 nM.

In assay [1] (IL-13 stimulated, 48 hours), `CC(C)n1nc(C(=O)NCc2ccc(NC(=O)N(C)C)cc2)c2c1C(C(F)F)CN(c1ccc(C(=O)N(C)C)cn1)C2` (single isomer, unassigned) [Example 493, rel-(R or S)-7-(difluoromethyl)-5-(5-(dimethylcarbamoyl)pyridin-2-yl)-N-(4-(3,3-dimethylureido)benzyl)-1-isopropyl-4,5,6,7-tetrahydro-1H-pyrazolo[4,3-c]pyridine-3-carboxamide] displayed an IC50 of 203 nM. Also, the EC50 in assay [2] worked out at 28 nM.

On to `CC(C)n1nc(C(=O)NCc2ccc(NC(=O)N(C)C)cc2)c2c1C(C(F)F)CN(c1ccc(C(=O)N(C)C)cn1)C2` (single isomer, unassigned) [Example 494, rel-(R or S)-7-(difluoromethyl)-5-(5-(dimethylcarbamoyl)pyridin-2-yl)-N-(4-(3,3-dimethylureido)benzyl)-1-isopropyl-4,5,6,7-tetrahydro-1H-pyrazolo[4,3-c]pyridine-3-carboxamide], for which the IC50 in assay [1] (IL-13 stimulated, 48 hours) is 4 nM. Further, the EC50 in assay [2] was determined as 0.5 nM.

Turning to `CC(C)n1nc(C(=O)NCc2ccc(NC(=O)N(C)C)cc2)c2c1CCN(c1ccc(C(=O)N(C)C)cn1)[C@@H]2C` (single isomer, unassigned) [Example 506], the IC50 in assay [1] (setting [3]) was determined as 14 nM. Also, in assay [2], the EC50 was 2 nM.

Turning to `CC(C)n1nc(C(=O)NCc2ccc(NC(=O)N(C)C)cc2)c2c1CCN(c1ccc(C(=O)N(C)C)cn1)[C@H]2C` (single isomer, unassigned) [Example 507], the IC50 in assay [1] (setting [3]) worked out at 1650 nM. The EC50 in assay [2] was 136 nM.

Regarding `CC(C)n1nc(C(=O)NCc2ccc(NC(=O)N(C)C)cc2)c2c1CCN(c1ncc(C(=O)N(C)C)cn1)[C@@H]2C` (single isomer, unassigned) [Example 508], half-maximal inhibition in assay [1] (setting [3]) (IC50) required 20 nM. Besides, the EC50 in assay [2] was found to be 7 nM.

`CC(C)n1nc(C(=O)NCc2ccc(NC(=O)N(C)C)cc2)c2c1CCN(c1ncc(C(=O)N(C)C)cn1)[C@H]2C` (single isomer, unassigned) [Example 509] had an IC50 in assay [1] (setting [3]) of 8170 nM. The EC50 in assay [2] is 3320 nM.

Regarding `CCn1nc(C(=O)NCc2ccc(NC(=O)N(C)C)cc2)c2c1CCN(c1ncc(C(=O)N(C)C)cn1)[C@H]2C` (single isomer, unassigned) [Example 510], in assay [1] (setting [3]), inhibition was half-maximal at 8830 nM (IC50). In addition, the EC50 in assay [2] stood at 1520 nM.

As to `CCn1nc(C(=O)NCc2ccc(NC(=O)N(C)C)cc2)c2c1CCN(c1ncc(C(=O)N(C)C)cn1)[C@@H]2C` (single isomer, unassigned) [Example 511], it took 29 nM to reach half-maximal inhibition in assay [1] (setting [3]) (IC50). Also, in assay [2], the EC50 is 6 nM.

In turn, `CNC(=O)Nc1ccc(CNC(=O)c2nn(C(C)C)c3c2CN(c2ncc(-c4nccn4C)cn2)C[C@@H]3C)cc1` (single isomer, unassigned) [Example 515] had an IC50 in assay [1] (setting [3]) of 6 nM. The EC50 in assay [2] is 1 nM.

Regarding `CC[C@H]1c2c(C(=O)NCc3ccc(NC(=O)N(C)C)cc3)nn(C(C)C)c2CCN1c1ccc(C(=O)N(C)C)cn1` (single isomer, unassigned) [Example 527], the IC50 in assay [1] (10 ng/mL IL13, 48 hours) was greater than 25100 nM. Moreover, in assay [2], the EC50 turned out to be 8870 nM.

`CC[C@H]1c2c(C(=O)NCc3ccc(NC(=O)N(C)C)cc3)nn(C(C)C)c2CCN1c1ccc(C(=O)N(C)C)cn1` (single isomer, unassigned) [Example 528] yielded an IC50 in assay [1] (10 ng/mL IL13, 48 hours) of 67 nM. The EC50 in assay [2] came to 17 nM.

The compound `CC(C)n1nc(C(=O)NCc2ccc(NC(=O)N(C)C)cc2)c2c1[C@@H](C)CN(c1ccc(C(=O)N(C)C)cn1)[C@@H]2C` (single isomer, unassigned) [Example 529] showed an IC50 in assay [1] (setting [4]) of 4 nM. The EC50 in assay [2] turned out to be 0.1 nM.

Take `CC(C)c1nc(C(=O)NCc2ccc(NC(=O)N(C)C)cc2)c2n1C(C)CN(c1ccc(C(=O)N(C)C)cc1)C2` (single isomer, unassigned) [Example 538, rel-(R or S)-7-(4-(Dimethylcarbamoyl)phenyl)-N-(4-(3,3-dimethylureido)benzyl)-3-isopropyl-5-methyl-5,6,7,8-tetrahydroimidazo[1,5-a]pyrazine-1-carboxamide]: in assay [1] (10 ng/mL IL13, 48 hours), the IC50 is 5 nM. For the same compound, the EC50 in assay [2] turned out to be 0.2 nM.

In assay [1] (10 ng/mL IL13, 48 hours), `CC(C)c1nc(C(=O)NCc2ccc(NC(=O)N(C)C)cc2)c2n1C(C)CN(c1ccc(C(=O)N(C)C)cc1)C2` (single isomer, unassigned) [Example 539, rel-(R or S)-7-(4-(Dimethylcarbamoyl)phenyl)-N-(4-(3,3-dimethylureido)benzyl)-3-isopropyl-5-methyl-5,6,7,8-tetrahydroimidazo[1,5-a]pyrazine-1-carboxamide] registered an IC50 of 72 nM. Besides, in assay [2], the EC50 amounted to 13 nM.

In assay [1] (10 ng/mL IL13, 48 hours), `CC(C)n1nc(C(=O)NCc2ccc(NC(=O)N(C)C)cc2)c2c1C(C(F)(F)F)CN(c1ccc(C(=O)N(C)C)cn1)C2` (single isomer, unassigned) [Example 547, rel-(R or S)-5-(5-(Dimethylcarbamoyl)pyridin-2-yl)-N-(4-(3,3-dimethylureido)benzyl)-1-isopropyl-7-(trifluoromethyl)-4,5,6,7-tetrahydro-1H-pyrazolo[4,3-c]pyridine-3-carboxamide] displayed an IC50 of 3 nM. Also, the EC50 in assay [2] came to 0.2 nM.

`CC(C)n1nc(C(=O)NCc2ccc(NC(=O)N(C)C)cc2)c2c1C(C(F)(F)F)CN(c1ccc(C(=O)N(C)C)cn1)C2` (single isomer, unassigned) [Example 548, rel-(R or S)-5-(5-(Dimethylcarbamoyl)pyridin-2-yl)-N-(4-(3,3-dimethylureido)benzyl)-1-isopropyl-7-(trifluoromethyl)-4,5,6,7-tetrahydro-1H-pyrazolo[4,3-c]pyridine-3-carboxamide] came in with an IC50 in assay [1] (10 ng/mL IL13, 48 hours) of 199 nM. The EC50 in assay [2] is 15 nM.

In assay [1] (setting [4]), `CC(C)n1nc(C(=O)NCc2ccc(-c3ncc[nH]3)cc2)c2c1[C@H](C)CN(c1ncc(C(=O)N(C)C)cn1)C2` (single isomer, unassigned) [Example 549] returned an IC50 of 1100 nM. Also, the EC50 in assay [2] is 99 nM.

`C[C@@H]1CN(c2ccc(C(=O)N(C)C)cn2)Cc2c(C(=O)NCc3ccc(NC(=O)N(C)C)cc3)nn(CC(F)(F)F)c21` (single isomer, unassigned) [Example 550]: in assay [1] (setting [4]), the IC50 was 85 nM. Further, the EC50 in assay [2] is 11 nM.

(Values after patent US20250320213A1, “Nitrogen-Containing Heterocyclic Compounds” (Pfizer Inc., priority 2024, published 2025).)
